Experimental data published in US12187701B2, “Taire family kinase inhibitors and uses thereof” (Dana-Farber Cancer Institute, Inc., priority 2018, dated 2025).

Assays:
[1] = biological target: Cdk14/CycY (Homo sapiens (Human), UniProt O94921); experiment: Lanthascreen Eu kinase binding assay for Cdk14/CycY with 30 minute pre-incubation; conditions: 30 minute pre-incubation of kinase with compound; read-out: IC50 CDK14 binding by Lanthascreen
Procedure: Lanthascreen Eu kinase binding assays were conducted for Cdk14/CycY largely as performed in the commercial assay service by Life Technologies, but included a 30 minute pre-incubation step of the kinase with candidate compounds to facilitate covalent bond formation.

[2] = biological target: CDK16/CycY (Homo sapiens (Human), UniProt Q00536); experiment: Lanthascreen Eu kinase binding assay for CDK16/CycY; conditions: read-out: IC50 CDK16 Lanthascreen binding
CDK16/CycY, sequence (Q00536 whole entry): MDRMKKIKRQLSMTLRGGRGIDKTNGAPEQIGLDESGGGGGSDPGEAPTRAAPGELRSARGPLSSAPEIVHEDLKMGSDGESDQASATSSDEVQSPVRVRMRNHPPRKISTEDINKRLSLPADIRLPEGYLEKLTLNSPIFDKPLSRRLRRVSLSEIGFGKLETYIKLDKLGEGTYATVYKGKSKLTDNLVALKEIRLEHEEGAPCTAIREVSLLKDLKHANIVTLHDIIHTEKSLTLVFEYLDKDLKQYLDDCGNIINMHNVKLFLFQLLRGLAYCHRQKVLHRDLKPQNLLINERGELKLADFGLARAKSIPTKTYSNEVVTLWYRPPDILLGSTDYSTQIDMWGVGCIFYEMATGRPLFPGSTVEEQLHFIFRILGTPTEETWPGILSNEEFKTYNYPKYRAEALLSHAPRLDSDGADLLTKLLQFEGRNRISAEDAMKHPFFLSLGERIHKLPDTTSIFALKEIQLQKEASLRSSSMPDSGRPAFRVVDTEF
CDK16/CycY, sequence (Q8ND76 whole entry partner): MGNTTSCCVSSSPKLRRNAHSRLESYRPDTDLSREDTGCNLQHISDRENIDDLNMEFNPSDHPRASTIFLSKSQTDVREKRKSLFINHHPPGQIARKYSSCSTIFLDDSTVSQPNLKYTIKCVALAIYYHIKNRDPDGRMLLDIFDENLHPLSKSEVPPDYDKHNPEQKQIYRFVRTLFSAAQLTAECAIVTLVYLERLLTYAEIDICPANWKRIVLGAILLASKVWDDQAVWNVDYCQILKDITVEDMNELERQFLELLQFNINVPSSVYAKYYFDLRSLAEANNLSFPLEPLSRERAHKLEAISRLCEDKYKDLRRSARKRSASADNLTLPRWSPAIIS
Procedure: Lanthascreen Eu kinase binding assays were conducted for CDK16/CycY at Life Technologies.

[3] = biological target: CDK2/CycA (Homo sapiens (Human), UniProt P24941); experiment: Z'LYTE kinase assay for CDK2/CycA at Km ATP; type: biochemical; conditions: read-out: IC50 CDK2 Z′LYTE kinase assay
[4] = tested on: HCT116 cells; experiment: Antiproliferation assay, Cell Titer Glo, 72 hours; type: cell-based; conditions: Homo sapiens, HCT-116, 72 h
How it was run: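 HCT116 cells seeded at 750 cells/well in McCoy's 5A with 10% FBS and exposed to four-fold compound dilution series for 72 h at 37 °C, 5% CO2. Viability by CellTiter-Glo luminescence, quadruplicate; IC50 by non-linear regression.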

Cdk14/CycY, sequence (O94921 whole entry): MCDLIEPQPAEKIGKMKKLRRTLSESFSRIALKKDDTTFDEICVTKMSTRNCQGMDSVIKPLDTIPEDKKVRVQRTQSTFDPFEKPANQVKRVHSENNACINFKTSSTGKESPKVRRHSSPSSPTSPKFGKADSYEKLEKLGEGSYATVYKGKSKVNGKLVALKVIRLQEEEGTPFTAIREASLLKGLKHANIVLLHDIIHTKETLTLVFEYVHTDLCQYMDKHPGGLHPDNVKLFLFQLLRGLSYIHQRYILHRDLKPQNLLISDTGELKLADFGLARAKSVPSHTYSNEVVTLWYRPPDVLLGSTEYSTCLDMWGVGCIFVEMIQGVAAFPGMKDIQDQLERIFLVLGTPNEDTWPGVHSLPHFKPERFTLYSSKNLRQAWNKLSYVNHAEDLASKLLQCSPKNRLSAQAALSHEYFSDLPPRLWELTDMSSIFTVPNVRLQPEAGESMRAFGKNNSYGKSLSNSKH
Cdk14/CycY, sequence (Q8ND76 whole entry partner): as the sequence (Q8ND76 whole entry partner) above

Compound | IC50 [1] [nM] | IC50 [2] [nM] | IC50 [3] [nM] | IC50 [4] [nM]
CN(C)C/C=C/C(=O)Nc1cccc(S(=O)(=O)N2CCC(NC(=O)c3n[nH]c(-c4ccccc4)c3NC(=O)c3c(Cl)cccc3Cl)CC2)c1 [FMF-04-197-1, (E)-4-(2,6-dichlorobenzamido)-N-(1-((3-(4-(dimethylamino)but-2-enamido)phenyl)sulfonyl)piperidin-4-yl)-5-phenyl-1H-pyrazole-3-carboxamide] | 28 | 5900 | 5900 | > 10000
CC(C)c1[nH]nc(C(=O)NC2CCN(S(=O)(=O)c3cccc(NC(=O)/C=C/CN(C)C)c3)CC2)c1NC(=O)c1c(Cl)cccc1Cl [FMF-04-199-1, (E)-4-(2,6-dichlorobenzamido)-N-(1-((3-(4-(dimethylamino)but-2-enamido)phenyl)sulfonyl)piperidin-4-yl)-5-isopropyl-1H-pyrazole-3-carboxamide] | 1000 | 8900 | > 10000 | > 10000
CN(C)C/C=C/C(=O)Nc1cccc(CN2CCC(NC(=O)c3n[nH]cc3NC(=O)c3c(F)cc(F)cc3F)CC2)c1 [FMF-04-200-2, (E)-N-(1-(3-(4-(dimethylamino)but-2-enamido)benzyl)piperidin-4-yl)-4-(2,4,6-trifluorobenzamido)-1H-pyrazole-3-carboxamide] | 17 | 110 | 508 | 293
CN(C)C/C=C/C(=O)Nc1cccc(S(=O)(=O)N2CCC(NC(=O)c3n[nH]cc3NC(=O)c3ccccc3)CC2)c1 [FMF-05-027-2, (E)-4-benzamido-N-(1-((3-(4-(dimethylamino)but-2-enamido)phenyl)sulfonyl)piperidin-4-yl)-1H-pyrazole-3-carboxamide] | 3 | 9.8 | 2.8 | 440
C=CC(=O)Nc1ccc(CNC(=O)c2n[nH]cc2NC(=O)c2c(Cl)cccc2Cl)cc1 [FMF-05-064-1, N-(4-acrylamidobenzyl)-4-(2,6-dichlorobenzamido)-1H-pyrazole-3-carboxamide] | 1700 | 478 | 15 | 117
CN(C)C/C=C/C(=O)Nc1ccc(N2CCC(NC(=O)c3n[nH]cc3NC(=O)c3c(Cl)cccc3Cl)CC2)cc1 [FMF-05-073-2, (E)-4-(2,6-dichlorobenzamido)-N-(1-(4-(4-(dimethylamino)but-2-enamido)phenyl)piperidin-4-yl)-1H-pyrazole-3-carboxamide] | 45 | 27.7 | 17 | 541
CN(C)C/C=C/C(=O)Nc1cccc(N2CCC(NC(=O)c3n[nH]cc3NC(=O)c3c(Cl)cccc3Cl)CC2)c1 [FMF-05-085-2, (E)-4-(2,6-dichlorobenzamido)-N-(1-(3-(4-(dimethylamino)but-2-enamido)phenyl)piperidin-4-yl)-1H-pyrazole-3-carboxamide] | 27 | 74.4 | 20 | 427
COc1ccccc1CC(=O)Nc1c[nH]nc1C(=O)NC1CCN(S(=O)(=O)c2cccc(NC(=O)/C=C/CN(C)C)c2)CC1 [FMF-05-117-1, (E)-N-(1-((3-(4-(dimethylamino)but-2-enamido)phenyl)sulfonyl)piperidin-4-yl)-4-(2-(2-methoxyphenyl)acetamido)-1H-pyrazole-3-carboxamide] | 14 | 17 | 5.71 | 395
COc1cccc(OC)c1C(=O)Nc1c[nH]nc1C(=O)NC1CCN(S(=O)(=O)c2cccc(NC(=O)/C=C/CN(C)C)c2)CC1 [FMF-05-119-1, (E)-4-(2,6-dimethoxybenzamido)-N-(1-((3-(4-(dimethylamino)but-2-enamido)phenyl)sulfonyl)piperidin-4-yl)-1H-pyrazole-3-carboxamide] | 49.5 | 11.3 | 24.6 | 4110
